Data reported in ChEMBL document CHEMBL4330125, “Fluoromethylcyclopropylamine derivatives as potential in vivo toxicophores - A cautionary disclosure” (Bioorg Med Chem Lett, 2019).

Assays:
Settings in all cases: in vivo
[1] = Toxicity in CD-1 mouse at 5 mg/kg, po administered as single dose via gavage; type: organism-based
[2] = Toxicity in CD-1 mouse assessed as ataxia at 5 mg/kg, po administered as single dose via gavage measured after 5 hrs; type: organism-based
[3] = Hepatotoxicity in CD-1 mouse assessed as appearance of mottled organ at 10 mg/kg, po administered as single dose via gavage measured after 24 hrs; type: toxicity, organism-based
[4] = Ratio of fCmax in CD-1 mouse at 10 mg/kg, po to IC50 for PARG in human HeLa cells; type: ADME, organism-based
[5] = Hepatotoxicity in CD-1 mouse assessed as appearance of pale yellow color organ at 10 mg/kg, po administered as single dose via gavage measured after 24 hrs; type: toxicity, organism-based
[6] = Toxicity in CD-1 mouse assessed as gastrointestinal bleeding at 10 mg/kg, po administered as single dose via gavage measured after 24 hrs; type: organism-based
[7] = Toxicity in CD-1 mouse at 160 mg/kg, po administered as single dose via gavage; type: organism-based

Row | SMILES | Activity [1] | Activity [2] | further results
1 | CCn1c(=O)n(Cc2cnn(C)c2)c(=O)c2cc(S(=O)(=O)NC3(C)CC3)ccc21 | Non-Toxic | Toxic | –
2 | Cn1cc(Cn2c(=O)c3cc(S(=O)(=O)NC4(C)CC4)ccc3n(C)c2=O)cn1 | Non-Toxic | Toxic | –
3 | CCn1c(=O)n(Cc2cnn(C)c2)c(=O)c2cc(S(=O)(=O)NC3(CF)CC3)ccc21 | Non-Toxic | Toxic | Activity [3]: Toxic; Ratio [4]: Nd(Toxic); Activity [5]: Toxic; Activity [6]: Toxic
4 | Cn1cc(Cn2c(=O)c3cc(S(=O)(=O)NC4(CF)CC4)ccc3n(C)c2=O)cn1 | – | Toxic | –
5 | Cn1cc(Cn2c(=O)c3cc(S(=O)(=O)NC4(CF)CC4)ccc3n(Cc3ccn(C)n3)c2=O)cn1 | Non-Toxic | – | –
6 | Cn1cc(Cn2c(=O)c3cc(S(=O)(=O)NC4(C)CC4)ccc3n(Cc3ccn(C)n3)c2=O)cn1 | Non-Toxic | – | Activity [7]: Non-Toxic
7 | CCn1c(=O)n(Cc2cc(C)on2)c(=O)c2cc(S(=O)(=O)NC3(CF)CC3)ccc21 | – | Toxic | –
